The record followed here is patent publication US20200069691A1, “HETEROCYCLIC COMPOUNDS AS HIV PROTEASE INHIBITORS” (Merck Sharp & Dohme Corp., priority 2016, published 2020).

For the assay, the target named is T1, wild-type HIV-1 protease (Human immunodeficiency virus type 1 group M subtype B, UniProt P04585).
T1 construct: Escherichia coli expressed wild-type HIV-1 protease protein
Kind of assay: Assay for Inhibition of Microbial Expressed HIV Protease (peptide substrate cleavage, LC-MS/MS readout). The assay is classed as biochemical. As to conditions: E. coli expressed wild-type HIV-1 protease, mean of at least two independent experiments, read-out: HIV Pr Enzyme HIV1 PR IC50. An outline of the steps:
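Cleavage of Val-Ser-Gln-Asn-(β-naphthyl)Ala-Pro-Ile-Val (400 μM) by recombinant HIV-1 protease ([…]) ran 1 h at 30 °C after a 30 min room-temperature inhibitor preincubation in 50 mM sodium acetate pH 5.5. Product peak areas by LC-MS/MS gave inhibition; values average at least two independent runs.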

For orientation: IC50 means the concentration needed to halve the response being measured. As for `CC(C)CC1(c2ccccc2)NC(=N)N(Cc2ccc(C(F)(F)F)c(C(=O)N3CCN(C)C(=O)C3)c2)C1=O` (stereo not drawn) [Compound 156, 4-{[5-{[2-imino-4-(2-methylpropyl)-5-oxo-4-phenylimidazolidin-1-yl]methyl}-2-(trifluoromethyl)phenyl]carbonyl}-1-methylpiperazin-2-one], the IC50 came to 13.5 nM. Next, `CN1CCN(C(=O)c2cc(CN3C(=N)NC(c4ccc(F)cc4)(c4ccc(F)cc4)C3=O)ccc2C(F)(F)F)CC1=O` [Compound 157, 4-{[5-{[4,4-bis(4-fluorophenyl)-2-imino-5-oxoimidazolidin-1-yl]methyl}-2-(trifluoromethyl)phenyl]carbonyl}-1-methylpiperazin-2-one]: 14.1 nM; `CC(C)CCC1(c2ccc(F)cc2)NC(=N)N(Cc2ccc(C(F)(F)F)c(C(=O)N3Cc4nc(-c5ccccc5)oc4C3)c2)C1=O` (stereo not drawn) [Compound 158, 5-(4-fluorophenyl)-2-imino-5-(3-methylbutyl)-3-{3-[(2-phenyl-4,6-dihydro-5H-pyrrolo[3,4-d][1,3]oxazol-5-yl)carbonyl]-4-(trifluoromethyl)benzyl} imidazolidin-4-one]: 15.8 nM. Take `CC(C)CCC1(c2ccc(F)cc2)NC(=N)N(Cc2ccc(C(F)(F)F)c(C(=O)N3C[C@@H]4C(=O)NC(=O)[C@]4(c4ccccc4)C3)c2)C1=O` (stereo partly drawn) [Compound 159, (3aR,6aR)-5-{[5-{[4-(4-fluorophenyl)-2-imino-4-(3-methylbutyl)-5-oxoimidazolidin-1-yl]methyl}-2-(trifluoromethyl)-phenyl]carbonyl}-3a-phenyltetrahydropyrrolo [3,4-c]pyrrole-1,3 (2H,3aH)-dione]: the IC50 came to 15.9 nM. As for `N=C1NC(c2ccccc2)(c2ccccc2)C(=O)N1Cc1ccc(C(F)(F)F)c(C(=O)N2CCNC(=O)C2)c1` [Compound 160, 4-({5-[(2-imino-5-oxo-4,4-diphenylimidazolidin-1-yl)methyl]-2-(trifluoromethyl)phenyl}-carbonyl)piperazin-2-one], the figure is 20.2 nM; as for `COC(=O)N1CCN(C(=O)c2cc(CN3C(=N)NC(c4ccccc4)(c4ccccc4)C3=O)ccc2C(F)(F)F)CC1` [Compound 161, methyl 4-({5-[(2-imino-5-oxo-4,4-diphenylimidazolidin-1-yl)methyl]-2-(trifluoromethyl)phenyl}-carbonyl)piperazine-1-carboxylate], 25.2 nM. Next, `CC(C)CCC1(c2ccccc2)NC(=N)N(Cc2ccc(C(F)(F)F)c(C(=O)N3CCC(F)(F)C3)c2)C1=O` (stereo not drawn) [Compound 162, 3-{3-[(3,3-difluoropyrrolidin-1-yl)carbonyl]-4-(trifluoromethyl)-benzyl}-2-imino-5-(3-methylbutyl)-5-phenylimidazolidin-4-one]: 32.2 nM; `CC(C)CCC1(c2ccc(F)cc2)NC(=N)N(Cc2ccc(C(F)(F)F)c(C(=O)N3CC[C@@]4(c5ccccc5)NOC[C@H]4C3)c2)C1=O` (stereo partly drawn) [Compound 163, 5-(4-fluorophenyl)-2-imino-5-(3-methylbutyl)-3-[3-{[(3aS,7aR)-7a-phenylhexahydro-isoxazolo[4,3-c]pyridin-5(3H)-yl]carbonyl}-4-(trifluoromethyl)benzyl] imidazolidin-4-one]: 33.3 nM; `CC(C)CCC1(c2ccc(F)cc2)NC(=N)N(Cc2ccc(C(F)(F)F)c(C(=O)N3CCc4c(cnn4-c4ccccc4)C3)c2)C1=O` (stereo not drawn) [Compound 164, 5-(4-fluorophenyl)-2-imino-5-(3-methylbutyl)-3-{3-[(1-phenyl-1,4,6,7-tetrahydro-5H-pyrazolo[4,3-c]pyridin-5-yl)carbonyl]-4-(trifluoromethyl)benzyl} imidazolidin-4-one]: 34.1 nM. For the compound `COc1ccc2c(c1)CCN(C(=O)c1cc(CN3C(=N)NC(c4ccc(F)cc4)(c4ccc(F)cc4)C3=O)ccc1C(F)(F)F)CC2` [Compound 165, 5.5-bis(4-fluorophenyl)-2-imino-3-{3-[(7-methoxy-1,2,4,5-tetrahydro-3H-3-benzazepin-3-yl)carbonyl]-4-(trifluoromethyl)benzyl} imidazolidin-4-one], the IC50 stood at 34.1 nM. Turning to `CC(C)CCC1(c2ccccc2)NC(=N)N(Cc2ccc(C(F)(F)F)c(C(=O)N3CCC3)c2)C1=O` (stereo not drawn) [Compound 166, 3-[3-(azetidin-1-ylcarbonyl)-4-(trifluoromethyl)benzyl]-2-imino-5-(3-methylbutyl)-5-phenylimidazolidin-4-one], the IC50 was 34.9 nM. Regarding `CC(C)CCC1(c2ccc(F)cc2)NC(=N)N(Cc2ccc(C(F)(F)F)c(C(=O)N3Cc4cncnc4C3)c2)C1=O` (stereo not drawn) [Compound 167, 3-[3-(5,7-dihydro-6H-pyrrolo[3,4-d]pyrimidin-6-ylcarbonyl)-4-(trifluoromethyl)benzyl]-5-(4-fluorophenyl)-2-imino-5-(3-methylbutyl)imidazolidin-4-one], the 50% inhibitory concentration (IC50) came out at 36.9 nM. Next, `CC(C)CCC1(c2ccc(F)cc2)NC(=N)N(Cc2ccc(C(F)(F)F)c(C(=O)N3Cc4nccnc4C3)c2)C1=O` (stereo not drawn) [Compound 168, 3-[3-(5,7-dihydro-6H-pyrrolo[3,4-b]pyrazin-6-ylcarbonyl)-4-(trifluoromethyl)benzyl]-5-(4-fluorophenyl)-2-imino-5-(3-methylbutyl)imidazolidin-4-one]: 38.6 nM; `CC(C)CCC1(c2ccc(F)cc2)NC(=N)N(Cc2ccc(C(F)(F)F)c(C(=O)N3C[C@H]4OCc5cnnn5[C@H]4C3)c2)C1=O` (stereo partly drawn) [Compound 169]: 38.6 nM. Regarding `CC(C)CCC1(c2ccccc2)NC(=N)N(Cc2ccc(C(F)(F)F)c(C(=O)N3CCCC3)c2)C1=O` (stereo not drawn) [Compound 170, 2-imino-5-(3-methylbutyl)-5-phenyl-3-[3-(pyrrolidin-1-ylcarbonyl)-4-(trifluoromethyl)benzyl] imidazolidin-4-one], the IC50 was 40.3 nM. Next, `N=C1NC(c2ccccc2)(c2ccccc2)C(=O)N1Cc1ccc(C(F)(F)F)c(C(=O)N2CCN(c3ncccn3)CC2)c1` [Compound 171, 2-imino-5,5-diphenyl-3-{3-[(4-pyrimidin-2-ylpiperazin-1-yl)carbonyl]-4-(trifluoromethyl)-benzyl}imidazolidin-4-one]: 53 nM; `N=C1NC(c2ccc(F)cc2)(c2ccc(F)cc2)C(=O)N1Cc1ccc(C(F)(F)F)c(C(=O)N2CCC(F)(F)C2)c1` [Compound 172, 3-{3-[(3,3-difluoropyrrolidin-1-yl)carbonyl]-4-(trifluoromethyl)-benzyl}-5,5-bis(4-fluorophenyl)-2-iminoimidazolidin-4-one]: 53.3 nM; `N=C1NC(c2ccc(F)cc2)(c2ccc(F)cc2)C(=O)N1Cc1ccc(C(F)(F)F)c(C(=O)N2CCC2)c1` [Compound 173, 3-[3-(azetidin-1-ylcarbonyl)-4-(trifluoromethyl)benzyl]-5,5-bis(4-fluorophenyl)-2-iminoimidazolidin-4-one]: 53.3 nM. On to `CC(C)C[C@@]1(c2ccccc2)NC(=N)N(Cc2ccc(C(F)(F)F)c(C(=O)N3Cc4nccnc4C3)c2)C1=O` [Compound 174, (5S)-3-[3-(5,7-dihydro-6H-pyrrolo[3,4-b]pyrazin-6-ylcarbonyl)-4-(trifluoromethyl)-benzyl]-2-imino-5-(2-methylpropyl)-5-phenylimidazolidin-4-one], for which the IC50 is 54.9 nM. Next, `CC(C)CCC1(c2ccc(F)cc2)NC(=N)N(Cc2ccc(C(F)(F)F)c(C(=O)N3C[C@@H]4ON=C(Nc5ccccc5)[C@@H]4C3)c2)C1=O` (stereo partly drawn) [Compound 175]: 59.7 nM; `CC(C)CCC1(c2ccccc2)NC(=N)N(Cc2ccc(C(F)(F)F)c(C(=O)N3CCC(C)(C)C3)c2)C1=O` (stereo not drawn) [Compound 176, 3-{3-[(3,3-dimethylpyrrolidin-1-yl)carbonyl]-4-(trifluoromethyl)benzyl}-2-imino-5-(3-methylbutyl)-5-phenylimidazolidin-4-one]: 63.4 nM; `CC(C)CC1(c2ccccc2)NC(=N)N(Cc2ccc(C(F)(F)F)c(C(=O)N3CCC(F)(F)C3)c2)C1=O` (stereo not drawn) [Compound 177, 3-{3-[(3,3-difluoropyrrolidin-1-yl)carbonyl]-4-(trifluoromethyl)benzyl}-2-imino-5-(2-methylpropyl)-5-phenylimidazolidin-4-one]: 70.3 nM.

For the compound `CC(=O)NCc1cc2c(o1)CCN(C(=O)c1cc(CN3C(=N)NC(CCC(C)C)(c4ccc(F)cc4)C3=O)ccc1C(F)(F)F)C2` (stereo not drawn) [Compound 178, N-[(5-{[5-{[4-(4-fluorophenyl)-2-imino-4-(3-methylbutyl)-5-oxoimidazolidin-1-yl]methyl}-2-(trifluoromethyl)phenyl]carbonyl}-4,5,6,7-tetrahydrofuro[3,2-c]pyridin-2-yl)methyl]acetamide], the IC50 is 71.6 nM. As for `CC(C)CC1(c2ccccc2)NC(=N)N(Cc2ccc(C(F)(F)F)c(C(=O)N3CCC3)c2)C1=O` (stereo not drawn) [Compound 179, 3-[3-(azetidin-1-ylcarbonyl)-4-(trifluoromethyl)benzyl]-2-imino-5-(2-methylpropyl)-5-phenylimidazolidin-4-one], the figure is 78.6 nM; as for `N=C1NC(c2ccc(F)cc2)(c2ccc(F)cc2)C(=O)N1Cc1ccc(C(F)(F)F)c(C(=O)N2CCCC2)c1` [Compound 180, 5,5-bis(4-fluorophenyl)-2-imino-3-[3-(pyrrolidin-1-ylcarbonyl)-4-(trifluoromethyl)benzyl] imidazolidin-4-one], 78.8 nM.

In the case of `CC1(C)CCN(C(=O)c2cc(CN3C(=N)NC(c4ccc(F)cc4)(c4ccc(F)cc4)C3=O)ccc2C(F)(F)F)C1` [Compound 181, 3-{3-[(3,3-dimethylpyrrolidin-1-yl)carbonyl]-4-(trifluoromethyl)benzyl}-5,5-bis(4-fluorophenyl)-2-iminoimidazolidin-4-one], the IC50 amounted to 89.8 nM. Next, `N#Cc1ncc2c(n1)CN(C(=O)c1cccc(CN3C(=N)NC(c4ccc(F)cc4)(c4ccc(F)cc4)C3=O)c1)C2` [Compound 182, 6-[(3-{[4,4-bis(4-fluorophenyl)-2-imino-5-oxoimidazolidin-1-yl]methyl}phenyl)carbonyl]-6,7-dihydro-5H-pyrrolo[3,4-d]pyrimidine-2-carbonitrile]: 1.7 nM.
